Test results as given in PubChem BioAssay (NCI).
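Step 1: Grow cells in 96-well plates. Step 2: Expose to compound for 48 hours at 5 concentrations. Step 3: Interpolate endpoints linearly; if unreached, use highest concentration. At the TGI there is no net growth.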

How the values were obtained:
Assay in all cases: NCI tumour cell line growth inhibition, 48 h
786-0 renal = test system: 786-0 renal
NCI-H522 lung = test system: NCI-H522 lung
KM20L2 colon = test system: KM20L2 colon
XF 498 CNS = test system: XF 498 CNS
SK-MEL-5 melanoma = test system: SK-MEL-5 melanoma
SF-295 CNS = test system: SF-295 CNS
U251 CNS = test system: U251 CNS
OVCAR-8 ovarian = test system: OVCAR-8 ovarian
RPMI-8226 leukemia = test system: RPMI-8226 leukemia
RXF-631 renal = test system: RXF-631 renal
HT29 colon = test system: HT29 colon
OVCAR-4 ovarian = test system: OVCAR-4 ovarian
HCC-2998 colon = test system: HCC-2998 colon
UACC-257 melanoma = test system: UACC-257 melanoma
NCI-H460 lung = test system: NCI-H460 lung
MALME-3M melanoma = test system: MALME-3M melanoma
LXFL 529 NSCLC = test system: LXFL 529 NSCLC
SK-MEL-2 melanoma = test system: SK-MEL-2 melanoma
SNB-75 CNS = test system: SNB-75 CNS
HL-60(TB) leukemia = test system: HL-60(TB) leukemia
OVCAR-3 ovarian = test system: OVCAR-3 ovarian
SK-MEL-28 melanoma = test system: SK-MEL-28 melanoma
NCI-H23 lung = test system: NCI-H23 lung
SNB-19 CNS = test system: SNB-19 CNS
MOLT-4 leukemia = test system: MOLT-4 leukemia
RXF 393 renal = test system: RXF 393 renal
HCT-116 colon = test system: HCT-116 colon
SF-539 CNS = test system: SF-539 CNS
DMS 273 small cell lung = test system: DMS 273 small cell lung
LOX IMVI melanoma = test system: LOX IMVI melanoma
HOP-62 NSCLC = test system: HOP-62 NSCLC
NCI-H226 lung = test system: NCI-H226 lung
CCRF-CEM leukemia = test system: CCRF-CEM leukemia
A549 NSCLC = test system: A549 NSCLC
CAKI-1 renal = test system: CAKI-1 renal
COLO 205 colon = test system: COLO 205 colon
IGROV1 ovarian = test system: IGROV1 ovarian
M14 melanoma = test system: M14 melanoma
SW-620 colon = test system: SW-620 colon
M19-MEL melanoma = test system: M19-MEL melanoma
KM12 colon = test system: KM12 colon
DLD-1 colon = test system: DLD-1 colon
UO-31 renal = test system: UO-31 renal
SNB-78 CNS = test system: SNB-78 CNS
ACHN renal = test system: ACHN renal
DMS 114 small cell lung = test system: DMS 114 small cell lung
TK-10 renal = test system: TK-10 renal
A498 renal = test system: A498 renal
HOP-18 NSCLC = test system: HOP-18 NSCLC
EKVX NSCLC = test system: EKVX NSCLC
SK-OV-3 ovarian = test system: SK-OV-3 ovarian
SF-268 CNS = test system: SF-268 CNS
HCT-15 colon = test system: HCT-15 colon
SN12C renal = test system: SN12C renal
UACC-62 melanoma = test system: UACC-62 melanoma
OVCAR-5 ovarian = test system: OVCAR-5 ovarian
K-562 leukemia = test system: K-562 leukemia
DU-145 prostate = test system: DU-145 prostate
BT-549 breast = test system: BT-549 breast
NCI/ADR-RES ovarian = test system: NCI/ADR-RES ovarian
HOP-92 NSCLC = test system: HOP-92 NSCLC
MDA-MB-231 breast = test system: MDA-MB-231 breast
PC-3 prostate = test system: PC-3 prostate
MCF7 breast = test system: MCF7 breast
T-47D breast = test system: T-47D breast

## COC(=O)C1=C(CS(=O)c2ccc([N+](=O)[O-])cc2[N+](=O)[O-])ON(C)C1c1ccccc1 (stereo not given)
786-0 renal
  TGI: > 100 µM
NCI-H522 lung
  TGI: 32.1 µM
KM20L2 colon
  TGI: > 72.6 µM
XF 498 CNS
  TGI: > 100 µM
SK-MEL-5 melanoma
  TGI: > 100 µM
SF-295 CNS
  TGI: > 100 µM
U251 CNS
  TGI: > 78.6 µM
OVCAR-8 ovarian
  TGI: > 100 µM
RPMI-8226 leukemia
  TGI: 46 µM
RXF-631 renal
  TGI: > 100 µM
HT29 colon
  TGI: 55.2 µM
OVCAR-4 ovarian
  TGI: > 100 µM
HCC-2998 colon
  TGI: > 56.7 µM
UACC-257 melanoma
  TGI: > 100 µM
NCI-H460 lung
  TGI: > 100 µM
MALME-3M melanoma
  TGI: > 100 µM
LXFL 529 NSCLC
  TGI: > 92.8 µM
SK-MEL-2 melanoma
  TGI: > 100 µM
SNB-75 CNS
  TGI: 77.6 µM
HL-60(TB) leukemia
  TGI: 24.2 µM
OVCAR-3 ovarian
  TGI: > 100 µM
SK-MEL-28 melanoma
  TGI: > 100 µM
NCI-H23 lung
  TGI: > 100 µM
SNB-19 CNS
  TGI: > 87.9 µM
MOLT-4 leukemia
  TGI: 48.5 µM
RXF 393 renal
  TGI: > 80.7 µM
HCT-116 colon
  TGI: > 100 µM
SF-539 CNS
  TGI: 56.2 µM
DMS 273 small cell lung
  TGI: > 80.6 µM
LOX IMVI melanoma
  TGI: 35 µM
HOP-62 NSCLC
  TGI: > 100 µM
NCI-H226 lung
  TGI: > 100 µM
CCRF-CEM leukemia
  TGI: 37.9 µM
A549 NSCLC
  TGI: > 100 µM
CAKI-1 renal
  TGI: > 60.8 µM
COLO 205 colon
  TGI: > 65 µM
IGROV1 ovarian
  TGI: > 100 µM
M14 melanoma
  TGI: > 100 µM
SW-620 colon
  TGI: 48.4 µM
M19-MEL melanoma
  TGI: > 100 µM
KM12 colon
  TGI: > 100 µM
DLD-1 colon
  TGI: > 100 µM
UO-31 renal
  TGI: > 100 µM
SNB-78 CNS
  TGI: > 96.5 µM
ACHN renal
  TGI: > 100 µM
DMS 114 small cell lung
  TGI: > 66.4 µM
TK-10 renal
  TGI: > 74.8 µM
A498 renal
  TGI: > 100 µM
HOP-18 NSCLC
  TGI: > 89.7 µM
EKVX NSCLC
  TGI: > 100 µM
SK-OV-3 ovarian
  TGI: > 100 µM
SF-268 CNS
  TGI: > 100 µM
HCT-15 colon
  TGI: > 78.9 µM
SN12C renal
  TGI: > 63.3 µM
UACC-62 melanoma
  TGI: > 75.2 µM
OVCAR-5 ovarian
  TGI: > 100 µM
K-562 leukemia
  TGI: 34.5 µM

## O=C1c2cc([N+](=O)[O-])cc3cc([N+](=O)[O-])cc(c23)C(=O)N1CCCNCCNCCCN1C(=O)c2cc([N+](=O)[O-])cc3cc([N+](=O)[O-])cc(c23)C1=O
786-0 renal
  TGI: 3.35 µM
NCI-H522 lung
  TGI: 1.13 µM
KM20L2 colon
  TGI: 5.09 µM
XF 498 CNS
  TGI: 0.436 µM
SK-MEL-5 melanoma
  TGI: 1.97 µM
SF-295 CNS
  TGI: 8 µM
U251 CNS
  TGI: 3.49 µM
OVCAR-8 ovarian
  TGI: 3.39 µM
RPMI-8226 leukemia
  TGI: 0.278 µM
HT29 colon
  TGI: 5.25 µM
OVCAR-4 ovarian
  TGI: 3.31 µM
HCC-2998 colon
  TGI: 1.51 µM
UACC-257 melanoma
  TGI: 2.52 µM
NCI-H460 lung
  TGI: 3.56 µM
MALME-3M melanoma
  TGI: 1.33 µM
LXFL 529 NSCLC
  TGI: 0.326 µM
SK-MEL-2 melanoma
  TGI: 0.323 µM
SNB-75 CNS
  TGI: 2.57 µM
HL-60(TB) leukemia
  TGI: 1.13 µM
OVCAR-3 ovarian
  TGI: 2.35 µM
SK-MEL-28 melanoma
  TGI: 2.11 µM
NCI-H23 lung
  TGI: 2.41 µM
SNB-19 CNS
  TGI: > 23.3 µM
MOLT-4 leukemia
  TGI: 1.41 µM
RXF 393 renal
  TGI: 0.375 µM
HCT-116 colon
  TGI: 0.667 µM
SF-539 CNS
  TGI: 1.26 µM
DMS 273 small cell lung
  TGI: 0.42 µM
DU-145 prostate
  TGI: 19.4 µM
HOP-62 NSCLC
  TGI: 3.07 µM
NCI-H226 lung
  TGI: 2.57 µM
BT-549 breast
  TGI: 5.51 µM
CCRF-CEM leukemia
  TGI: 6.46 µM
A549 NSCLC
  TGI: 3.6 µM
CAKI-1 renal
  TGI: 8.4 µM
COLO 205 colon
  TGI: 0.849 µM
IGROV1 ovarian
  TGI: 1.74 µM
M14 melanoma
  TGI: 3.31 µM
SW-620 colon
  TGI: 4.52 µM
NCI/ADR-RES ovarian
  TGI: > 100 µM
M19-MEL melanoma
  TGI: 0.752 µM
HOP-92 NSCLC
  TGI: 1.82 µM
KM12 colon
  TGI: 2.51 µM
MDA-MB-231 breast
  TGI: 3.45 µM
PC-3 prostate
  TGI: 7.87 µM
DLD-1 colon
  TGI: 3.24 µM
UO-31 renal
  TGI: 3.35 µM
SNB-78 CNS
  TGI: 1.14 µM
ACHN renal
  TGI: > 23.2 µM
DMS 114 small cell lung
  TGI: 1.38 µM
TK-10 renal
  TGI: 7.04 µM
A498 renal
  TGI: 13.4 µM
HOP-18 NSCLC
  TGI: 5.63 µM
EKVX NSCLC
  TGI: 10 µM
SK-OV-3 ovarian
  TGI: 8.48 µM
SF-268 CNS
  TGI: 2.03 µM
MCF7 breast
  TGI: 11.7 µM
HCT-15 colon
  TGI: > 30.6 µM
SN12C renal
  TGI: 2.2 µM
UACC-62 melanoma
  TGI: 1.48 µM
OVCAR-5 ovarian
  TGI: 6.68 µM
T-47D breast
  TGI: 6.72 µM
K-562 leukemia
  TGI: 14.9 µM
